From patent US10471127B2, “Peptide pharmaceuticals for insulin resistance” (Mederis Diabetes, LLC, priority 2011, dated 2019)

System: not given
Assay: not given
Details: in water; cited from earlier work

Row | Compound | CMC [mM]
1 | CCCCCCCCCCCCCCO[C@@H]1O[C@H](CO)[C@@H](O[C@@H]2O[C@@H](CO)[C@H](O)[C@@H](O)[C@@H]2O)[C@H](O)[C@H]1O (stereo in doubt) [Tetradecyl maltoside] | 0.01
2 | CCCCCCCCCCCCCO[C@@H]1O[C@H](CO)[C@@H](OC2OC(CO)C(O)C(O)C2O)[C@H](O)[C@H]1O (stereo in doubt) [Tridecyl maltoside] | 0.03
3 | CCCCCCCCCCO[C@@H]1O[C@H](CO)[C@@H](O[C@H]2O[C@H](CO)[C@@H](O)[C@H](O)[C@H]2O)[C@H](O)[C@H]1O [Decyl maltoside] | 1.8
4 | CCCCCCCCCCCCO[C@@H]1O[C@H](CO)[C@@H](O[C@H]2O[C@H](CO)[C@@H](O)[C@H](O)[C@H]2O)[C@H](O)[C@H]1O [Dodecyl-β-D-maltoside] | 0.17
5 | CCCCCCCCO[C@@H]1O[C@H](CO)[C@@H](O[C@H]2O[C@H](CO)[C@@H](O)[C@H](O)[C@H]2O)[C@H](O)[C@H]1O [Octyl maltoside] | 19.5
6 | Sucrose dodecanoate | 0.3

Molecular target: T1, glucagon R (Homo sapiens, UniProt P47871)
T1 construct: Cerep SA
Assay: glucagon cellular assay, stimulation of cAMP levels (Cerep SA)
Format: cell-based
Details: cAMP generated in cells; n.c. means EC50 not calculable
Procedure: Compounds were weighed precisely in an amount of approximately 1 mg and assayed in standard cellular assays (Cerep SA). The readout is the amount of cAMP generated in the cells treated with the test compounds, in either agonist or antagonist mode.

T1 sequence (P47871 26-477): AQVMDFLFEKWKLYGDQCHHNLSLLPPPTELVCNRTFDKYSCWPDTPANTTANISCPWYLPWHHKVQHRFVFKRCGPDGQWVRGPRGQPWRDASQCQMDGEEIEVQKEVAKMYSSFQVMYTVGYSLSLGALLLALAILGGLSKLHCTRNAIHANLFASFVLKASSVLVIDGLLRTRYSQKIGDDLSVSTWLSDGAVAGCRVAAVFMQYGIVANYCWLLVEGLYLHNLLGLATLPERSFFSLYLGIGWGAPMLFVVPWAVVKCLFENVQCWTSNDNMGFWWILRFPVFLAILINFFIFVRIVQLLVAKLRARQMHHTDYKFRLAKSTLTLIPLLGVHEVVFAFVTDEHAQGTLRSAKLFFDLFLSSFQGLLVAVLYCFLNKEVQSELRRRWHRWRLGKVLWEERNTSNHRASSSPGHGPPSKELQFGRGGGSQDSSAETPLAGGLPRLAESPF

Row | Compound | EC50 [nM]
7 | CCCCCCCCCCCCO[C@@H]1O[C@H](C(=O)NCCCC[C@H](NC(=O)[C@@H]2CCCCNC(=O)CC[C@H](NC(=O)[C@H](CC(=O)O)NC(=O)[C@H](CC(C)C)NC(=O)[C@H](Cc3ccc(O)cc3)NC(=O)[C@H](CCCCN)NC(=O)[C@H](CO)NC(=O)[C@H](Cc3ccc(O)cc3)NC(=O)[C@H](CC(=O)O)NC(=O)[C@H](CO)NC(=O)[C@@H](NC(=O)[C@H](Cc3ccccc3)NC(=O)[C@@H](NC(=O)CNC(=O)[C@H](CCC(N)=O)NC(=O)C(C)(C)NC(=O)[C@@H](N)Cc3c[nH]cn3)[C@@H](C)O)[C@@H](C)O)C(=O)N[C@@H](CCCNC(=N)N)C(=O)N[C@@H](C)C(=O)N[C@@H](C)C(=O)N2)C(=O)N[C@@H](Cc2ccccc2)C(=O)NC(C)(C)C(N)=O)[C@@H](O)[C@H](O)[C@H]1O [EU-A455] | 770
